Reference: PubChem BioAssay AID1963863 (Molecular Pharmacology Branch, DTP, NCI, 2024)

System: 931267-113-T-J1-PDC KRAS spheroid with HUVEC/MSC, viability
Experiment: Anticancer human tumor 931267-113-T-J1-PDC patient-derived colon adenocarcinoma cell line growth inhibition [KRAS2]
Conditions: for IC50: curve of first compound; for viability, T/C: stronger effect = lower value
Procedure, shortened: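 Combination screen of spheroid viability in tumor-cell co-cultures with endothelial (HUVEC) and mesenchymal stem cell stroma. Each agent was tested in half-log dilutions, topping at clinical Cmax or at 10 microM without a known Cmax.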

[1] = second compound 0.1 µM, first compound 0.000316 µM
[2] = second compound 0.1 µM, first compound 0.001 µM
[3] = second compound 0.1 µM, first compound 0.00316 µM
[4] = second compound 0.1 µM, first compound 0.01 µM
[5] = second compound 0.1 µM, first compound 0.0316 µM
[6] = second compound 0.316 µM, first compound 0.000316 µM
[7] = second compound 0.316 µM, first compound 0.001 µM
[8] = second compound 0.316 µM, first compound 0.00316 µM
[9] = second compound 0.316 µM, first compound 0.01 µM
[10] = second compound 0.316 µM, first compound 0.0316 µM
[11] = second compound 1 µM, first compound 0.000316 µM
[12] = second compound 1 µM, first compound 0.001 µM
[13] = second compound 1 µM, first compound 0.00316 µM
[14] = second compound 1 µM, first compound 0.01 µM
[15] = second compound 1 µM, first compound 0.0316 µM
[16] = second compound 3.16 µM, first compound 0.000316 µM
[17] = second compound 3.16 µM, first compound 0.001 µM
[18] = second compound 3.16 µM, first compound 0.00316 µM
[19] = second compound 3.16 µM, first compound 0.01 µM
[20] = second compound 3.16 µM, first compound 0.0316 µM
[21] = second compound 10 µM, first compound 0.000316 µM
[22] = second compound 10 µM, first compound 0.001 µM
[23] = second compound 10 µM, first compound 0.00316 µM
[24] = second compound 10 µM, first compound 0.01 µM
[25] = second compound 10 µM, first compound 0.0316 µM
[26] = second compound 0.1 µM, first compound 0.1 µM
[27] = second compound 0.316 µM, first compound 0.1 µM
[28] = second compound 1 µM, first compound 0.1 µM
[29] = second compound 3.16 µM, first compound 0.1 µM
[30] = second compound 10 µM, first compound 0.1 µM
[31] = second compound 0.1 µM, first compound 0.316 µM
[32] = second compound 0.1 µM, first compound 1 µM
[33] = second compound 0.1 µM, first compound 3.16 µM
[34] = second compound 0.1 µM, first compound 10 µM
[35] = second compound 0.316 µM, first compound 0.316 µM
[36] = second compound 0.316 µM, first compound 1 µM
[37] = second compound 0.316 µM, first compound 3.16 µM
[38] = second compound 0.316 µM, first compound 10 µM
[39] = second compound 1 µM, first compound 0.316 µM
[40] = second compound 1 µM, first compound 1 µM
[41] = second compound 1 µM, first compound 3.16 µM
[42] = second compound 1 µM, first compound 10 µM
[43] = second compound 3.16 µM, first compound 0.316 µM
[44] = second compound 3.16 µM, first compound 1 µM
[45] = second compound 3.16 µM, first compound 3.16 µM
[46] = second compound 3.16 µM, first compound 10 µM
[47] = second compound 10 µM, first compound 0.316 µM
[48] = second compound 10 µM, first compound 1 µM
[49] = second compound 10 µM, first compound 3.16 µM
[50] = second compound 10 µM, first compound 10 µM
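Further: compound exposure lasted 7 days before the readout.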
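Wherever viability, T/C is given: 100% = DMSO vehicle control viability.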

CC(=O)Nc1cccc(-n2c(=O)n(C3CC3)c(=O)c3c(Nc4ccc(I)cc4F)n(C)c(=O)c(C)c32)c1 + COc1cc2nc(C)nc(NC(C)c3cc(N)cc(C(F)(F)F)c3)c2cc1OC1CCOC1
IC50 (second compound 0.1 µM): 0.0103 µM | IC50 (second compound 0.316 µM): 0.00576 µM | IC50 (second compound 1 µM): 0.00982 µM | IC50 (second compound 3.16 µM): 0.00773 µM | IC50 (second compound 10 µM): < 0.0001 µM | viability, T/C (second compound 0.1 µM, first compound 0.0001 µM): 75.8% | viability, T/C [1]: 75.3% | viability, T/C [2]: 77.1% | viability, T/C [3]: 72.5% | viability, T/C [4]: 51% | viability, T/C [5]: 15.7% | viability, T/C (second compound 0.316 µM, first compound 0.0001 µM): 76.9% | viability, T/C [6]: 60.6% | viability, T/C [7]: 64.8% | viability, T/C [8]: 51.3% | viability, T/C [9]: 50% | viability, T/C [10]: 13.7% | viability, T/C (second compound 1 µM, first compound 0.0001 µM): 87% | viability, T/C [11]: 71.7% | viability, T/C [12]: 73.8% | viability, T/C [13]: 66.1% | viability, T/C [14]: 52.1% | viability, T/C [15]: 14.1% | viability, T/C (second compound 3.16 µM, first compound 0.0001 µM): 91.3% | viability, T/C [16]: 82.1% | viability, T/C [17]: 75.1% | viability, T/C [18]: 59.5% | viability, T/C [19]: 52% | viability, T/C [20]: 19.6% | viability, T/C (second compound 10 µM, first compound 0.0001 µM): 21.4% | viability, T/C [21]: 37.6% | viability, T/C [22]: 20.4% | viability, T/C [23]: 2.31% | viability, T/C [24]: 14.3% | viability, T/C [25]: 1.54%

CN(C)C/C=C/C(=O)Nc1cc2c(Nc3ccc(F)c(Cl)c3)ncnc2cc1O[C@H]1CCOC1 + COc1cc2nc(C)nc(NC(C)c3cc(N)cc(C(F)(F)F)c3)c2cc1OC1CCOC1
IC50 (second compound 0.1 µM): > 0.1 µM | IC50 (second compound 0.316 µM): > 0.1 µM | IC50 (second compound 1 µM): > 0.1 µM | IC50 (second compound 3.16 µM): > 0.1 µM | IC50 (second compound 10 µM): > 0.1 µM | viability, T/C [1]: 96.2% | viability, T/C [2]: 92.8% | viability, T/C [3]: 75.7% | viability, T/C [4]: 87.5% | viability, T/C [5]: 103% | viability, T/C [26]: 116% | viability, T/C [6]: 81.8% | viability, T/C [7]: 75% | viability, T/C [8]: 90.3% | viability, T/C [9]: 87.6% | viability, T/C [10]: 85.2% | viability, T/C [27]: 93.5% | viability, T/C [11]: 87.7% | viability, T/C [12]: 92.5% | viability, T/C [13]: 104% | viability, T/C [14]: 89.8% | viability, T/C [15]: 100% | viability, T/C [28]: 94% | viability, T/C [16]: 72.8% | viability, T/C [17]: 72.8% | viability, T/C [18]: 88.1% | viability, T/C [19]: 74.9% | viability, T/C [20]: 97.2% | viability, T/C [29]: 108% | viability, T/C [21]: 69.6% | viability, T/C [22]: 78.8% | viability, T/C [23]: 77% | viability, T/C [24]: 88.6% | viability, T/C [25]: 102% | viability, T/C [30]: 83.7%

COC(=O)c1ccc2c(C(=Nc3ccc(N(C)C(=O)CN4CCN(C)CC4)cc3)c3ccccc3)c(O)[nH]c2c1 + COc1cc2nc(C)nc(NC(C)c3cc(N)cc(C(F)(F)F)c3)c2cc1OC1CCOC1
IC50 (second compound 0.1 µM): 1.41 µM | IC50 (second compound 0.316 µM): 0.962 µM | IC50 (second compound 1 µM): 0.513 µM | IC50 (second compound 3.16 µM): 0.637 µM | IC50 (second compound 10 µM): < 0.0316 µM | viability, T/C [5]: 88.1% | viability, T/C [26]: 97.5% | viability, T/C [31]: 69.8% | viability, T/C [32]: 71.1% | viability, T/C [33]: 0.65% | viability, T/C [34]: 0.3% | viability, T/C [10]: 77.5% | viability, T/C [27]: 68.3% | viability, T/C [35]: 55.2% | viability, T/C [36]: 50% | viability, T/C [37]: 0.3% | viability, T/C [38]: 0.83% | viability, T/C [15]: 73% | viability, T/C [28]: 95.2% | viability, T/C [39]: 57.6% | viability, T/C [40]: 33.5% | viability, T/C [41]: 0.48% | viability, T/C [42]: 0.34% | viability, T/C [20]: 95.6% | viability, T/C [29]: 88.3% | viability, T/C [43]: 78.2% | viability, T/C [44]: 32.5% | viability, T/C [45]: 0.32% | viability, T/C [46]: 0.26% | viability, T/C [25]: 7.41% | viability, T/C [30]: 2.82% | viability, T/C [47]: 0.58% | viability, T/C [48]: 0.41% | viability, T/C [49]: 0.41% | viability, T/C [50]: 0.26%

O=C(c1cc(Cc2n[nH]c(=O)c3ccccc23)ccc1F)N1CCN(C(=O)C2CC2)CC1 + COc1cc2nc(C)nc(NC(C)c3cc(N)cc(C(F)(F)F)c3)c2cc1OC1CCOC1
IC50 (second compound 0.1 µM): > 10 µM | IC50 (second compound 0.316 µM): > 10 µM | IC50 (second compound 1 µM): > 10 µM | IC50 (second compound 3.16 µM): > 10 µM | IC50 (second compound 10 µM): > 10 µM | viability, T/C [5]: 78.7% | viability, T/C [26]: 81.4% | viability, T/C [31]: 85.7% | viability, T/C [32]: 87.7% | viability, T/C [33]: 94.6% | viability, T/C [34]: 113% | viability, T/C [10]: 85.1% | viability, T/C [27]: 99.7% | viability, T/C [35]: 88.2% | viability, T/C [36]: 70.9% | viability, T/C [37]: 85.6% | viability, T/C [38]: 73% | viability, T/C [15]: 89.6% | viability, T/C [28]: 92.1% | viability, T/C [39]: 99.1% | viability, T/C [40]: 112% | viability, T/C [41]: 97.5% | viability, T/C [42]: 84.1% | viability, T/C [20]: 107% | viability, T/C [29]: 87.5% | viability, T/C [43]: 95.5% | viability, T/C [44]: 94.4% | viability, T/C [45]: 106% | viability, T/C [46]: 105% | viability, T/C [25]: 101% | viability, T/C [30]: 112% | viability, T/C [47]: 94.7% | viability, T/C [48]: 98.3% | viability, T/C [49]: 90.3% | viability, T/C [50]: 97.3%
